Data on one substance can be found in patent US8093218B2, “Peptide derived from vascular endothelial growth factor receptor-1 binding integrin α5β1 having proangiogenic activity” (Provincia Italiana della Congregazione dei Figli …, priority 2006, dated 2012).

“Also recorded” adds a separate entry of the source.

Assay [1] relates to HUVEC adhesion to VEGFR-1/Fc. As to the kind of experiment: inhibition by peptides of EC adhesion to VEGFR-1/Fc. It is filed as cell-based, human. As to conditions: peptide added to HUVEC suspension before plating. The method, then:
(§1) In order to test the ability of the twelve chosen peptides to inhibit the adhesion of the EC to VEGFR-1 mediated from the integrin α5β1, every peptide was added to one suspension of HUVEC before plated on dishes covered with VEGFR-1/Fc or fibronectin (FN). The data were indicated as percentage of adhesion, calculated to the number of cells adhered on the substrate itself in absence of peptides.

Assay [2] concerns HUVEC adhesion to fibronectin (FN). The assay is described as follows: inhibition by peptides of EC adhesion to fibronectin. The following applies: peptide added to HUVEC suspension before plating. It is filed as cell-based, human. The method, then:
as §1

Assay [3] concerns HUVEC. As to the kind of experiment: adhesion of HUVEC on plates with covalently linked peptides. It is filed as cell-based, human. The following applies: HUVEC incubated 1 hour on covalently linked peptide. The method, then:
To establish whether the four peptides, were able to inhibit the adhesion of the EC to VEGFR-1, by supporting directly the adhesion of the EC, the peptides were linked covalently to plates and the HUVEC were incubated on plates for 1 hour. The peptide 1 was used as negative control and the peptide RGD as the positive control. Unspecific adhesion was measured by absorbance in the plates covered with BSA.

Assay [4] deals with HUVEC adhesion to peptide 12. The assay is described as follows: adhesion of HUVEC to peptide 12 in presence of chelating agents or anti-integrin antibodies. It is filed as cell-based, human. As to conditions: EDTA or EGTA treatment. Here is the method:
The peptide 12 or the BSA, as non-specific adhesion control, were linked on plates and the HUVEC added in the presence of chelating agents (EDTA or EGTA).
The HUVEC were pre-incubated with an antibody against the integrin α5β1 or versus the integrinic subunit α6 and left to adhere on plates covered with peptide 12 or BSA.

In assay [5] the test system is HUVEC migration induced from VEGFR-1/Fc. As to the kind of experiment: EC migration in Boyden chambers induced by VEGFR-1/Fc. It is filed as cell-based, human. As to conditions: HUVEC pre-incubated with peptide. The method, then:
(§2) In order to investigate the ability to peptide 12 to influence the migration of the EC induced from VEGFR-1/Fc, a process mediated from the integrin α5β1, the HUVEC were pre-incubated with peptide 12 and peptide 1 and placed in Boyden chambers in order to analyze the migration induced from VEGFR-1/Fc or fibronectin (FN). Data represent the average of 14 microscopic fields and are referred to as percentage of inhibition compared to the migration observed in the absence of peptides.

The test system of assay [6] is HUVEC migration induced by fibronectin (FN). The assay is described as follows: EC migration in Boyden chambers induced by fibronectin. The class given is cell-based, human. The following applies: HUVEC pre-incubated with peptide. The method, then: as §2
Assay [7] concerns HUVEC. As to the kind of experiment: formation of tubules of EC in Type I collagen gel. It is filed as cell-based, human. The method, then: It was tested the ability of the peptide 12 to induce the formation of tubules of EC. HUVEC cells were plated on 24 wells plates previously covered with a mixture of gel Type I collagen, in the absence or presence of 500 μg/ml peptide 12 or peptide 1. A second layer of gel Type I collagen was placed on the adherent cells. As shown, in the absence or presence of peptides, were added, in the culture medium, different concentrations of VEGF (40 or 100 nM), or 20 μg/ml of protein VEGFR-1/Fc.

In assay [8] the test system is rabbit corneal tissue. The assay is described as follows: rabbit corneal neovascularization with peptide-releasing pellets. It is filed as in vivo. As to conditions: rabbit cornea, monitored for 17 days. From the text:
The FIGS. 6A and 6B show the effect on angiogenesis of the peptide 12 or Y220 compare to VEGF at different concentrations.
To address the angiogenic role, in vivo, pellets releasing peptide 12 were implanted into rabbit corneal tissue and neovascularization was monitored for 17 days.

In assay [9] the target is integrin α5β1 (Homo sapiens, UniProt P05556+P08648). As to the kind of experiment: integrin α5β1 aggregation around peptide-coated magnetic beads (immunostaining). The following applies: magnetic beads coated with peptide, immunostaining for integrin α5β1. More on the design: endogenous in cells; host or cells: HUVEC. It is filed as cell-based. Here is the method:
The integrins not linked are widely distributed on cellular membrane, but after the ligand binding and the activation merged in distinct structures called focal contacts and ECM contact.
It was examined whether the peptide 12 was able to induce aggregation of integrin α5β1 after the binding. EC adherent cells were incubated with magnetic beads coated with peptide 12, or peptide RGD or peptide RGE respectively as positive and negative controls, and immunostained with an antibody against integrin α5β1.

Sequence of integrin α5β1 (P08648 42-894 limits assumed): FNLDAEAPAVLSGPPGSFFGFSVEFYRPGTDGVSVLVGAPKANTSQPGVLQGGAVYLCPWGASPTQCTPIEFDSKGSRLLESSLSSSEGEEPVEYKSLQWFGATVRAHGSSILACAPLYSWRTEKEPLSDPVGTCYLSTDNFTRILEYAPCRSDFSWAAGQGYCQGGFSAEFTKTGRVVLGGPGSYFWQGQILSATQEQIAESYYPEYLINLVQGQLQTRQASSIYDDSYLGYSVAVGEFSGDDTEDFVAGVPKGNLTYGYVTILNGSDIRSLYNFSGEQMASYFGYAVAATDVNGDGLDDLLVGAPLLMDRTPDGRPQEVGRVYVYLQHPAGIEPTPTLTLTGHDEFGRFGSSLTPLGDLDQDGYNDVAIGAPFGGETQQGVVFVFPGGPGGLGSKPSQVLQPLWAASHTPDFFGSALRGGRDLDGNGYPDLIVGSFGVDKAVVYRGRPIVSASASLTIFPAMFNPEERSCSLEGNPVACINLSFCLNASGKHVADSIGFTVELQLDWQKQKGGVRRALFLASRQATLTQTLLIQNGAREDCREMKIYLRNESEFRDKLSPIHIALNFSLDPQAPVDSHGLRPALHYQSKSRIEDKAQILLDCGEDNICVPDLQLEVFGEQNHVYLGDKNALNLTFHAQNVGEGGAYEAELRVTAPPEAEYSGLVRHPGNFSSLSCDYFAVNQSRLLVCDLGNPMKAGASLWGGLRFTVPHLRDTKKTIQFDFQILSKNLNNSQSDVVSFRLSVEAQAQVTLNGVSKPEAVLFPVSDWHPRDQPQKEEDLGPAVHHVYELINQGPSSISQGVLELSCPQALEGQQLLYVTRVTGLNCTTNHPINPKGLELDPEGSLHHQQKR
Sequence of integrin α5β1 (P08648 895-1049 partner limits assumed): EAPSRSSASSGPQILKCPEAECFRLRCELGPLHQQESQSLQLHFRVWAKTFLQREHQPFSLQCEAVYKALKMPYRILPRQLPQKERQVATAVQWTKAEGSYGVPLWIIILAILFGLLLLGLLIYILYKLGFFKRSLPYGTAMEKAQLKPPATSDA
Sequence of integrin α5β1 (P05556 21-798): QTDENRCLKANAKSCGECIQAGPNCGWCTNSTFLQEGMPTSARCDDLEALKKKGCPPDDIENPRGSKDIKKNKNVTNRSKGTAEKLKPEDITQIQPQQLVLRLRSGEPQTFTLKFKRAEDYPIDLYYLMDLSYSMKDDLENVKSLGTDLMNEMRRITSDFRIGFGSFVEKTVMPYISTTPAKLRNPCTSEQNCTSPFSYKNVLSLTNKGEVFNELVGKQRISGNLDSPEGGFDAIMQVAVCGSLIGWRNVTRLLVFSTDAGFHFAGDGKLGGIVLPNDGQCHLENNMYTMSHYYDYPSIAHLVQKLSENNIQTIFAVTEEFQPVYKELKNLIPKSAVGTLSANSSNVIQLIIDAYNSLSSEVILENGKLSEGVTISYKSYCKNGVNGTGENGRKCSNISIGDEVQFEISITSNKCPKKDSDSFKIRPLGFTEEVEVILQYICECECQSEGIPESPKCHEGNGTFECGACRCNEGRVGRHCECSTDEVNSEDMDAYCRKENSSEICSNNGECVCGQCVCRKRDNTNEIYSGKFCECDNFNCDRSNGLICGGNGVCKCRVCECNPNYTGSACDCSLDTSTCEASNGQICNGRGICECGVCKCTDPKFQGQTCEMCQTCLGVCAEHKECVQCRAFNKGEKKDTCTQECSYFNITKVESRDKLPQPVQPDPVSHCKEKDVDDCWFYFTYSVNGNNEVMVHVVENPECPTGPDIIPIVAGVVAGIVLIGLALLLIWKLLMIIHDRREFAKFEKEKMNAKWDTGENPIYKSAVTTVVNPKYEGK

For “NYLTHRQ (listed as Homo sapiens) [peptide 12]”, the “inhibition of adhesion of EC to VEGFR-1/Fc” value in assay [1] is given as “effectively blocked; also recorded: inhibit cellular adhesion to sVEGFR-1”. Also, in assay [2], the “inhibition of adhesion of EC to fibronectin” value is given as “partially inhibit”. In addition, in assay [3], the “direct support of EC adhesion by plate-linked peptide” value was “induced the adhesion of EC; also recorded: directly supports the adhesion of EC”. The “dependence of EC adhesion to peptide 12 on divalent cations” value in [4] is recorded as “requires divalent cations; also recorded: sensitive to divalent cations”. Besides, the “inhibition of EC migration induced by VEGFR-1/Fc” value in [5] was “completely annulled the migratory response; also recorded: inhibits the induced cellular migration from VEGFR-1”. Also, the “inhibition of EC migration induced by fibronectin” value in assay [6] is on record as “no significant inhibition”. The “effect on VEGF-induced tubule formation” value in assay [7] (500 μg/ml peptide with VEGF 40 nM) is reported as “increased the formation of induced VEGF tubules”. For the same substance, in assay [7] (500 μg/ml peptide, collagen I matrix), the “induction of formation of tubules of EC” value was “able to induce in vitro the formation of vascular structures”. In addition, the “formation of vascular structures in presence of VEGFR-1/Fc” value in [7] (peptide in presence of VEGFR-1/Fc (data not shown)) was “partially maintained its ability to induce the formation of vascular structures”. Besides, the corneal neoangiogenesis entry in assay [8] is “strongly promoted neoangiogenesis”. In addition, in assay [9], the “integrin α5β1 aggregation / bead attachment on EC” value is recorded as “A separate colouring for integrin α5β1 was observed around the beads”.
